Measurements published in PubChem BioAssay (NCI).
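48-hour exposure; five concentrations; linearly interpolated endpoints. TGI: total growth inhibition.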

Experiments:
Test in all cases: NCI anticancer screen, dose series, 48 h
[1] = system: A498 renal
[2] = system: KM12 colon
[3] = system: HCT-116 colon
[4] = system: NCI-H226 lung
[5] = system: K-562 leukemia
[6] = system: MOLT-4 leukemia
[7] = system: HL-60(TB) leukemia
[8] = system: LOX IMVI melanoma
[9] = system: SN12C renal
[10] = system: COLO 205 colon
[11] = system: NCI-H522 lung
[12] = system: HS 578T breast
[13] = system: MDA-MB-231 breast

SMILES | TGI [1] [µM] | TGI [2] [µM] | TGI [3] [µM] | TGI [4] [µM] | TGI [5] [µM] | TGI [6] [µM] | TGI [7] [µM] | TGI [8] [µM] | TGI [9] [µM] | TGI [10] [µM] | TGI [11] [µM] | TGI [12] [µM] | TGI [13] [µM]
COc1ccc(NC(=O)C(=O)NNC(=O)c2sc(NNC(C)=O)nc2C)c([N+](=O)[O-])c1 | > 100 | > 100 | > 100 | > 100 | > 100 | 85.1 | > 100 | > 100 | > 100 | > 100 | > 100 | – | –
CCc1cccc(C(C)C)c1NC(=O)C(=O)C(C(=O)C(=O)OC)c1nc2ccccc2[nH]c1=O (stereo unspecified) | > 100 | > 100 | > 100 | > 100 | > 100 | > 100 | > 100 | > 100 | > 100 | > 100 | > 100 | – | –
Cc1cc(N(CCC#N)CCC#N)ccc1/C=C(\NC(=O)/C=C/c1ccccc1)NC(=O)Nc1ccc(Cl)cc1 | > 100 | > 100 | > 100 | > 100 | > 100 | > 100 | > 100 | > 100 | > 100 | > 100 | – | – | –
CCSc1nc2sc(C)c(C)c2c(=O)n1-c1ccc(C(=O)O)cc1 | > 100 | > 100 | 74.3 | 86.2 | > 100 | > 100 | > 100 | > 100 | > 100 | > 100 | 76.3 | – | –
O=C1CN(c2ccc(Cl)cc2)C(=O)CN1CCN1CC(=O)N(c2ccc(Cl)cc2)CC1=O | > 100 | > 100 | > 100 | – | – | > 100 | > 100 | – | > 100 | > 100 | > 100 | > 100 | –
C[C@@]12CC[C@H]3[C@@H]4CCC(=O)N[C@@]4(C)CC[C@@H]3[C@@]1(C)CC[C@H](OC(=O)Cc1ccc(N(CCCl)CCCl)cc1)C2 | 32.8 | 44.5 | 29.9 | 33.2 | 48.7 | 38.8 | – | 27.8 | 29.1 | 38.3 | 34.4 | – | –
CCOC(=O)CCC(C(=O)OCC)n1nc2ccc(Nc3c(C)[n+]([O-])c4cc(Cl)ccc4[n+]3[O-])cc2n1 (stereo unspecified) | > 100 | > 100 | > 100 | > 100 | > 100 | > 100 | > 100 | > 100 | > 100 | > 100 | > 100 | > 100 | –
CCCCCCCCCCCCCCCCCCNc1ccn(C2OC(COP(=O)(O)O)C(O)C2O)c(=O)n1 (stereo unspecified) | > 100 | > 100 | > 100 | > 100 | > 100 | > 100 | – | > 100 | > 100 | > 100 | > 100 | > 100 | > 100
c1ccc2c(c1)CCc1c-2n(CCN2CCCCC2)c2ccccc12 | – | 32 | 25.5 | 25.1 | 30.9 | 44.8 | – | 29.6 | 36.9 | 26.2 | 27.1 | 35.4 | 28
Oc1[nH]c2ccccc2c1N=NC1=NCCCCN1 | > 100 | > 100 | > 100 | > 100 | > 100 | > 100 | – | > 100 | > 100 | > 100 | > 100 | > 100 | > 100
O=C(CSc1nnc(Cc2ccccc2)o1)Nc1ccc(Cl)cc1 | > 100 | > 100 | > 100 | > 100 | > 100 | > 100 | > 100 | > 100 | > 100 | > 100 | > 100 | – | –
N#C/C(=C/c1cccnc1)C(=O)c1ccccc1 | – | > 100 | > 100 | > 100 | > 100 | > 100 | > 100 | > 100 | > 100 | > 100 | > 100 | – | –
OCCCSc1ccccc1SCCCO | – | > 100 | > 100 | – | > 100 | > 100 | > 100 | > 100 | > 100 | > 100 | > 100 | – | > 100
CC1=C(C(=O)OCCO[N+](=O)[O-])C(c2ccccc2C(F)(F)F)C(C(=O)OC(C)C)=C(C)N1 (stereo unspecified) | 60.6 | 21.8 | 29.1 | 27.4 | > 100 | > 100 | > 100 | 27.3 | 36.8 | 28.4 | 44.4 | – | 23.5
O=[N+]([O-])c1ccc(NC2OCC(O)C(O)C2O)cc1 (stereo unspecified) | > 100 | > 100 | – | > 100 | > 100 | > 100 | – | > 100 | > 100 | > 100 | > 100 | – | –
CCCCCCOc1ccc(NC2=C(Cl)C(=O)c3cccnc3C2=O)cc1 | > 10 | 2.97 | 2.09 | 3.58 | > 10 | > 10 | 3.78 | 2.81 | 4.08 | – | – | > 10 | –
CC(C)(C)c1cc(-c2ccc(-c3cc(C(C)(C)C)c(O)c(C(C)(C)C)c3)cc2)cc(C(C)(C)C)c1O | > 100 | > 100 | > 100 | > 100 | > 100 | > 100 | > 100 | > 100 | > 100 | > 100 | > 100 | – | > 100
O=c1nc2n(cc1/C=C\Br)C1CC(O)C(CO2)O1 (stereo unspecified) | > 100 | > 100 | > 100 | > 100 | > 100 | > 100 | 54.8 | > 100 | > 100 | > 100 | – | – | > 100
Cc1cccc2sc(NC(=O)c3cc([N+](=O)[O-])ccc3Cl)nc12 | > 100 | 12.1 | 12 | > 64.1 | > 100 | > 100 | > 100 | 6.64 | 3.34 | > 71.3 | 4.1 | – | > 100
